# Measured values published in ChEMBL document CHEMBL4823282, “Novel Broad-Spectrum Antimicrobial Peptide Derived from Anoplin and Its Activity on Bacterial Pneumonia in Mice” (J Med Chem, 2021).
# Where a SMILES comes first, the peptide text is derived from it.
# How the values were obtained:
# Acinetobacter baumannii = experiment: Antibacterial activity against Acinetobacter baumannii ATCC 19606 incubated for 18 hrs by CLSI based broth dilution method; assay type: functional; conditions: ATCC 19606 = CIP 70.34 = JCM 6841
# Erythrocyte = experiment: Hemolytic activity in BALB/C mouse erythrocytes incubated for 1 hr by absorbance method; assay type: ADME, cell-based
# [1] = Selectivity ratio of MHC10 for BALB/C mouse erythrocytes to MIC for gram positive bacteria; assay type: toxicity
# Pseudomonas aeruginosa [2] = experiment: Synergistic antibacterial activity against Pseudomonas aeruginosa ATCC 27853 at 2 times MIC incubated for 18 to 24 hrs in presence of 2 times MIC of polymyxin B by broth microdilution assay based checkerboard assay; assay type: functional; conditions: time 18-24 hrs
# Staphylococcus aureus = experiment: Antibacterial activity against Staphylococcus aureus ATCC 25923 incubated for 18 hrs by CLSI based broth dilution method; assay type: functional
# Pseudomonas aeruginosa [3] = experiment: Antibacterial activity against Pseudomonas aeruginosa ATCC 27853 incubated for 18 hrs by CLSI based broth dilution method; assay type: functional
# Klebsiella pneumoniae = experiment: Antibacterial activity against Klebsiella pneumoniae ATCC 700603 incubated for 18 hrs by CLSI based broth dilution method; assay type: functional
# Escherichia coli = experiment: Antibacterial activity against Escherichia coli ATCC 25922 incubated for 18 hrs by CLSI based broth dilution method; assay type: functional
# [4] = Cytotoxicity against human glomerular mesangial cells incubated for 12 hrs by MTT assay; assay type: cell-based; conditions: Glomerular mesangial cell
# Enterococcus faecalis = experiment: Antibacterial activity against Enterococcus faecalis ATCC 29212 incubated for 18 hrs by CLSI based broth dilution method; assay type: functional
# Bacillus subtilis = experiment: Antibacterial activity against Bacillus subtilis ATCC 23857 incubated for 18 hrs by CLSI based broth dilution method; assay type: functional
# [5] = test system: Staphylococcus epidermidis; experiment: Antibacterial activity against Staphylococcus epidermidis ATCC 12228 incubated for 18 hrs by CLSI based broth dilution method; assay type: functional
# Bacteria [6] = experiment: Antibacterial activity against bacteria incubated for 18 hrs by CLSI based broth dilution method; assay type: functional
# [7] = Selectivity ratio of MHC10 for BALB/C mouse erythrocytes to MIC for fungi; assay type: toxicity
# Fungi = experiment: Antibacterial activity against fungi incubated for 18 hrs by CLSI based broth dilution method; assay type: functional
# [8] = Selectivity ratio of MHC10 for BALB/C mouse erythrocytes to MIC for bacteria; assay type: toxicity
# [9] = Selectivity ratio of MHC10 for BALB/C mouse erythrocytes to MIC for gram-negative bacteria; assay type: toxicity
# Bacteria [10] = experiment: Antibacterial activity against Gram-positive bacteria incubated for 18 hrs by CLSI based broth dilution method; assay type: functional
# Pseudomonas aeruginosa [11] = experiment: Synergistic antibacterial activity against Pseudomonas aeruginosa ATCC 27853 at 2 times MIC incubated for 18 to 24 hrs in presence of 2 times MIC of rifampicin by broth microdilution assay based checkerboard assay; assay type: functional; conditions: time 18-24 hrs
# Bacteria [12] = experiment: Antibacterial activity against Gram-negative bacteria incubated for 18 hrs by CLSI based broth dilution method; assay type: functional
Structure (SMILES),MIC (Acinetobacter baumannii) [µM],MHC10 (Erythrocyte),selectivity ratio at 18 h [1],FIC (Pseudomonas aeruginosa [2]),MIC (Staphylococcus aureus) [µM],MIC (Pseudomonas aeruginosa [3]) [µM],MIC (Klebsiella pneumoniae) [µM],MIC (Escherichia coli) [µM],IC50 [4] [µM],MIC (Enterococcus faecalis) [µM],MIC (Bacillus subtilis) [µM],MIC [5] [µM],MIC (Bacteria [6]) [µM],selectivity ratio [7],MIC (Fungi) [µM],selectivity ratio [8],selectivity ratio [9],MIC (Bacteria [10]) [µM],FIC (Pseudomonas aeruginosa [11]),MIC (Bacteria [12]) [µM]
CC[C@H](C)[C@H](NC(=O)[C@H](CCCNC(=N)N)NC(=O)[C@H](CCCCN)NC(=O)[C@H](Cc1ccccc1)NC(=O)[C@H](Cc1c[nH]c2ccccc12)NC(=O)[C@@H](N)CCCCN)C(=O)N[C@@H](CCCCN)C(=O)N[C@H](C(=O)N[C@@H](Cc1ccccc1)C(=O)N[C@@H](Cc1c[nH]c2ccccc12)C(N)=O)[C@@H](C)O (H-KWFKRIKTFW-NH2),128,>= 512 uM,13.4,0.25,16,16,32,16,80.2,64,16,128,32,16,32,16,19,38.1,0.3125,
CC[C@H](C)[C@H](NC(=O)[C@H](CCCNC(=N)N)NC(=O)[C@H](CCCCN)NC(=O)[C@H](Cc1ccccc1)NC(=O)[C@H](Cc1ccccc1)NC(=O)CN)C(=O)N[C@@H](CCCNC(=N)N)C(=O)N[C@H](C(=O)N[C@@H](Cc1ccccc1)C(=O)N[C@@H](Cc1ccccc1)C(N)=O)[C@@H](C)O (H-GFFKRIRTFF-NH2),64,>= 512 uM,16,0.5625,16,32,32,32,88.9,64,16,64,26.9,19,26.9,19,22.6,32,0.5625,
N=C(N)NCCC[C@H](NC(=O)[C@H](CCCNC(=N)N)NC(=O)[C@H](Cc1c[nH]c2ccccc12)NC(=O)[C@H](CCCNC(=N)N)NC(=O)[C@H](CCCNC(=N)N)NC(=O)[C@H](Cc1c[nH]c2ccccc12)NC(=O)[C@H](Cc1c[nH]c2ccccc12)NC(=O)[C@@H](N)CCCNC(=N)N)C(=O)N[C@@H](Cc1c[nH]c2ccccc12)C(=O)N[C@@H](Cc1c[nH]c2ccccc12)C(N)=O (H-RWWRRWRRWW-NH2),128,43.67 µM,3.23,,8,32,32,32,11.2,32,4,32,17.4,2.5,17.4,2.5,1.93,13.5,,22.6
CC[C@H](C)[C@H](NC(=O)[C@H](CCCNC(=N)N)NC(=O)[C@H](CCCNC(=N)N)NC(=O)[C@H](Cc1ccccc1)NC(=O)[C@H](Cc1ccccc1)NC(=O)CN)C(=O)N[C@@H](CCCNC(=N)N)C(=O)N[C@H](C(=O)N[C@@H](Cc1ccccc1)C(=O)N[C@@H](Cc1ccccc1)C(N)=O)[C@@H](C)O (H-GFFRRIRTFF-NH2),32,>= 512 uM,32,0.5625,8,32,32,32,52.6,32,8,32,17.4,29.3,17.4,29.3,26.9,16,0.5625,
CC[C@H](C)[C@H](NC(=O)CN)C(=O)N[C@@H](CCCNC(=N)N)C(=O)N[C@@H](Cc1c[nH]c2ccccc12)C(=O)N[C@@H](CCCCN)C(=O)N[C@@H](Cc1ccccc1)C(=O)N[C@@H](Cc1c[nH]c2ccccc12)C(=O)N[C@@H](CCCCN)C(=O)N[C@@H](Cc1ccccc1)C(=O)N[C@H](C(N)=O)[C@@H](C)O (H-GIRWKFWKFT-NH2),128,>= 512 uM,6.73,,32,32,64,32,≥ 512,128,64,128,58.7,8.72,58.7,8.72,11.3,76.1,,45.3
CC(C)C[C@H](NC(=O)[C@H](C)NC(=O)[C@@H](NC(=O)[C@H](CCCCN)NC(=O)[C@H](C)NC(=O)[C@H](CCCNC(=N)N)NC(=O)[C@H](CCCCN)NC(=O)[C@H](C)NC(=O)[C@H](C)NC(=O)CN)[C@@H](C)O)C(N)=O (H-GAAKRAKTAL-NH2),≥ 512,>= 512 uM,1,,≥ 512,≥ 512,≥ 512,≥ 512,≥ 512,≥ 512,≥ 512,≥ 512,≥ 512,1,≥ 512,1,1,≥ 512,,≥ 512
CC(C)C[C@H](NC(=O)CN)C(=O)N[C@@H](CC(C)C)C(=O)N[C@@H](CCCCN)C(=O)N[C@@H](CCCNC(=N)N)C(=O)N[C@@H](CC(C)C)C(=O)N[C@@H](CCCCN)C(=O)N[C@H](C(=O)N[C@@H](CC(C)C)C(=O)N[C@@H](C)C(N)=O)[C@@H](C)O (H-GLLKRLKTLA-NH2),≥ 512,>= 512 uM,4,,256,256,256,256,≥ 512,≥ 512,32,64,166,3.08,166,3.08,2.38,128,,215
CC(C)C[C@H](NC(=O)[C@H](CC(C)C)NC(=O)[C@@H](NC(=O)[C@H](CCCCN)NC(=O)[C@H](Cc1ccccc1)NC(=O)[C@H](CCCNC(=N)N)NC(=O)[C@H](CCCCN)NC(=O)[C@H](CC(C)C)NC(=O)[C@H](CC(C)C)NC(=O)CN)[C@@H](C)O)C(N)=O (H-GLLKRFKTLL-NH2),256,>= 512 uM,8,,128,64,128,64,≥ 512,256,32,16,69.8,7.34,69.8,7.34,6.73,64,,76.1
